Results reported in publication PMC4624469 (Synapse (New York, N.Y.), 2015).
pKd, pKi: −log10 of the molar value. Several values for one entry are separate records, joined by “and”; a condition that tells them apart may be missing. Equal values may be shown once. Entries after “also recorded” stand apart in the source; their conditions may differ. Read-outs that look alike come from different tables or passages of the source.

Key:
[1] = ref Mukherjee et al., 2000; cited from earlier work
[2] = tested on: D3R; settings: cited from earlier work
[3] = target: D2R high-affinity (D2Rhigh) sites; settings: read-out: Kd for D2Rhigh, 1996, cited from earlier work
[4] = tested on: D3R; settings: human brain; ref Tziortzi et al., 2011; cited from earlier work
[5] = target: D2R/D3R (Mus musculus, UniProt P30728); test: PET/CT of 18F-fallypride in wild type and D2R knock-out mice; type: in vivo; settings: D2R knock-out mice, PET
[6] = tested on: D2R/D3R; test: as above; type: in vivo
[7] = tested on: dopamine D3R, D2Rhigh and D2Rlow receptors; test: Approximate levels of 18F-fallypride bound to receptor subtypes; settings: in vivo levels in striatum
[8] = target: D2RShort; settings: read-out: D2RShort Ki; with 3H-spiperone; ref Stark et al., 2007; cited from earlier work
[9] = target: D2RLong; settings: read-out: D2RLong Ki; with 3H-spiperone; ref Stark et al., 2007; cited from earlier work
[10] = tested on: dopamine D2 receptor (D2R)/D3R; type: binding, rabbit
[11] = Brain uptake / approximated brain concentration after intravenous injection; type: in vivo, rat; settings: assuming uptake like 11C-5-OH-DPAT
[12] = tested on: dopamine D2 receptor (D2R)/D3R; test: In vivo rat PET: drug-induced displacement of 18F-fallypride; settings: for 18F-Fallypride displacement in vivo (change), Dorsal Striatum / 18F-Fallypride displacement in vivo (change), Ventral Striatum: 90 min post 18F-fallypride
[13] = tested on: dopamine D2 receptor (D2R)/D3R
[14] = reason for HPbCD vehicle; ref Xi et al., 2004; Gilbert et al. 2005; cited from earlier work
[15] = target: D2 Receptor; settings: read-out: Binding Affinity D2 Receptor, cited from earlier work
[16] = tested on: D3 Receptor; test: Binding affinity of drugs at D3 receptor; settings: for In Vitro D3 Selectivity: D2/D3 affinity ratio of the cited Table 1 values
[17] = target: D3 Receptor; settings: read-out: Binding Affinity D3 Receptor, cited from earlier work
[18] = In Vitro and In Vivo PET, ref Mukherjee et al., 2000, Shi et al., 2004
[19] = BPND KO/BPND WT, mice, listed as 18F-fallypride
[20] = wild-type mice, PET, cerebellum reference
[21] = intravenous dose of 0.015 mg/kg
[22] = rat sagittal slices, 10 µM drug, dorsal and ventral striata

D2R/D3R (Mus musculus, UniProt P30728), sequence (P30728 whole entry): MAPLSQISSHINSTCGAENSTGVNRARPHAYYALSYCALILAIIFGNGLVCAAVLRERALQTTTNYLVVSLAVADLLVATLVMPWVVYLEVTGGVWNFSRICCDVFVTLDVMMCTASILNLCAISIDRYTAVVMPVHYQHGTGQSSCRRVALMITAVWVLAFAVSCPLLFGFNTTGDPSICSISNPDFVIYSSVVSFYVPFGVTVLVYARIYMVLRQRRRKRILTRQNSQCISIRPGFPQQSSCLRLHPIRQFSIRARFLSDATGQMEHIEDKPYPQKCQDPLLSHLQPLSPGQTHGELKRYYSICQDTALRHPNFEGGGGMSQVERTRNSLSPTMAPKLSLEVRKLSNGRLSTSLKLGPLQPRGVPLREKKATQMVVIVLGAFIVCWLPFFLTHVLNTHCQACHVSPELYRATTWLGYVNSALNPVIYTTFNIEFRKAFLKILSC

CCCN([11CH2]CC)C1CCc2c(O)cccc2C1 (racemic) [11C-5-OH-DPAT, 11C-(R,S)-5-hydroxy-2-(di-n-propylamino)tetralin]
Uptake in the rat brain [1]: approximately 1 % of the injected dose
Findings (receptor subtype binding) [2, 18]: D2Rhigh and some D3R (yet to be confirmed)

CCCN(CCCCC[18F])C1CCc2c(O)cccc2C1 (racemic) [18F-5-OH-FPPAT, (R,S)-2-(N-propyl-N-(5-^18F-fluoropentyl)-5-hydroxyaminotetralin]
Findings (receptor subtype binding) [2, 18]: D2Rhigh and some D3R (yet to be confirmed)

CCCN(CCC)C1CCc2ccc(O)cc2C1 (centres unmarked) [3H-7-OH-DPAT]
Findings (receptor subtype binding) ([2]; In Vitro, ref Gonzalez and Sibley, 1995): D3R binding at low concentrations and D2Rhigh at higher concentrations

CCCN(CCC)C1CCc2ccc(O)cc2C1 (centres unmarked) [7-OH-DPAT]
pKd ([3]; ref van Vliet et al.): 7.25 and 7.05

CC[11CH2]N1CCO[C@@H]2c3cc(O)ccc3CCC21 (some centres unmarked) [11C-PHNO]
D3R binding fraction, substantia nigra and hypothalamus [4]: 100%
D3R binding fraction, ventral striatum [4]: 26%

C=CCN1CCC[C@H]1CNC(=O)c1cc(CCC[18F])cc(OC)c1OC [18F-Fallypride, (S)-N-[(1-allyl-2-pyrrolidinyl)methyl]-5-(3-[18F]fluoropropyl)-2,3-dimethoxybenzamide]
BPND KO, Hypothalmus [5]: 1.36
BPND KO, Substantia nigra/ Ventral tegmental area [5]: 0.81
BPND KO, Ventral Striatum [5]: 0.55
BPND KO, Dorsal Striatum ([5]; small negative values listed as 0): 0
fD3 (fraction of total binding to D3 receptors), Dorsal Striatum ([6]; BPND KO/BPND WT, mice): 0%
fD3 (fraction of total binding to D3 receptors), Hypothalmus ([6]; BPND KO/BPND WT, mice): 98.5%
fD3 (fraction of total binding to D3 receptors), Substantia nigra/ Ventral tegmental area ([6]; BPND KO/BPND WT, mice): 99.2%
fD3 (fraction of total binding to D3 receptors), Ventral Striatum ([6]; BPND KO/BPND WT, mice): 15.6%
fD3 (fraction of total binding to D3 receptors), Hypothalmus [6, 19]: ~ 100%
fD3 (fraction of total binding to D3 receptors), Substantia nigra/ Ventral tegmental area [6, 19]: ~ 100%
fD3 (fraction of total binding to D3 receptors), Ventral Striatum [6, 19]: 15%
BPND WT, Dorsal Striatum [6, 20]: 5.30
BPND WT, Hypothalmus [6, 20]: 1.38
BPND WT, Substantia nigra/ Ventral tegmental area [6, 20]: 0.81
BPND WT, Ventral Striatum [6, 20]: 3.51
Level of 18F-fallypride bound to D2Rhigh [7]: ~60%
Level of 18F-fallypride bound to D2Rlow [7]: ~20%
Level of 18F-fallypride bound to D3R [7]: ~20%
pKi [8]: 8.68
pKi [9]: 8.66

CCCN(CC=C[125I])C1CCc2ccc(O)cc2C1 (centres unmarked) [125I-7-OH-PIPAT]
Findings (receptor subtype binding) ([2]; In Vitro, ref Mugnani et al., 2013, Gurevich and Joyce, 1999): D3R binding; D2Rhigh binding not known

CCCN(CCC)[C@@H]1CCc2ccc(O)cc2C1 [(R)-7-OH-DPAT]
18F-fallypride binding reduced by ([10]; 10 nM drug, rabbit nucleus accumbens): 10–15%
18F-fallypride binding reduced by ([10]; 10 µM drug, all regions in rabbit): ≥ 85%
18F-fallypride displaced ([10]; rabbit sagittal slices, lower doses, olfactory tubercle and nucleus accumbens): approx. 15%
Approximated brain concentration ([11]; dose of 1.88 mg/kg): approximately 100 nM
Approximated brain concentration [11, 21]: 0.6 to 1 nM
pKd ([3]; ref Gonzalez and Sibley, 1995, van Vliet et al.): 7.25 and 7.05
18F-Fallypride displacement in vivo (change), Dorsal Striatum ([12]; 0.015 mg/kg iv, rat PET): −22% and −21.5%
18F-Fallypride displacement in vivo (change), Ventral Striatum ([12]; 0.015 mg/kg iv, rat PET): −29% and −28.7%
Nondisplaced 18F-Fallypride ([12]; 0.015 mg/kg iv, rat PET): 71 to 78%
displacement of 18F-fallypride in the ventral striatum ([12]; 0.015 mg/kg iv, rat PET): 29%
dorsal striatum 18F-fallypride binding reduced by ([12]; 0.015 mg/kg iv, rat PET): 22%
18F-Fallypride displacement in vivo (change), Dorsal Striatum ([12]; 0.06 mg/kg iv, rat PET): −32.9%
18F-Fallypride displacement in vivo (change), Ventral Striatum ([12]; 0.06 mg/kg iv, rat PET): −43.4%
Nondisplaced 18F-Fallypride ([12]; 0.06 mg/kg iv, rat PET): 57 to 67%
18F-Fallypride displacement in vivo (change), Dorsal Striatum ([12]; 0.38 mg/kg iv, rat PET): −67.9%
18F-Fallypride displacement in vivo (change), Ventral Striatum ([12]; 0.38 mg/kg iv, rat PET): −75%
Nondisplaced 18F-Fallypride ([12]; 0.38 mg/kg iv, rat PET): 25 to 32%
18F-Fallypride displacement in vivo (change), Dorsal Striatum ([12]; 1.88 mg/kg iv, rat PET): −58% and −57.6%
18F-Fallypride displacement in vivo (change), Ventral Striatum ([12]; 1.88 mg/kg iv, rat PET): −77% and −76.7%
Nondisplaced 18F-Fallypride ([12]; 1.88 mg/kg iv, rat PET): 23 to 42%
displacement of 18F-fallypride in the ventral striatum ([12]; 1.88 mg/kg iv, rat PET): 77%
dorsal striatum 18F-fallypride binding reduced by ([12]; 1.88 mg/kg iv, rat PET): 58%
18F-fallypride displaced in vivo ([12]; dose of 1.88 mg/kg): greater than 50%
18F-fallypride displaced in vivo [12, 21]: approximately 20%
18F-fallypride binding reduced by ([13]; 10 nM drug, rat ventral striatum (VST) and dorsal striatum (DST)): 10–15%
18F-fallypride binding reduced by ([13]; 10 µM drug, all regions in rat): ≥ 85%
18F-fallypride displaced ([13]; rat horizontal slices, 100 nM drug): approx. 30%
18F-fallypride displaced ([13]; rat horizontal slices, 10 µM drug): exceeded 80%
18F-fallypride displaced ([13]; rat horizontal slices, micromolar concentration): about 60%
18F-fallypride displaced ([13]; rat sagittal slices, 10 µM drug, dorsal striatum): approx. 75%

COc1ccccc1N1CCN(CCCCNC(=O)c2ccc3ccccc3c2)CC1 [BP 897]
Water solubility [14]: low water solubility
18F-fallypride displaced, dorsal and ventral striatum ([12]; 3 mg/kg iv at 90 min post 18F-fallypride, rat PET): 24–29%
Effect on 18F-fallypride binding in DSTR and VSTR ([12]; 3.2 mg/kg at 90 min, rat PET): visible reduction
18F-Fallypride displacement in vivo (change), Dorsal Striatum ([12]; 3.2 mg/kg iv in HPbCD, rat PET): −29.3%
18F-Fallypride displacement in vivo (change), Ventral Striatum ([12]; 3.2 mg/kg iv in HPbCD, rat PET): −24.0%
Nondisplaced 18F-Fallypride ([12]; 3.2 mg/kg iv, rat PET): 70 to 76%
18F-fallypride displaced in vivo ([12]; rat PET, striatum, dose not given at place): > 20%
18F-fallypride displaced [13, 22]: more than 90%

C=CCN1CCC[C@H]1CNC(=O)c1cc(CCCF)cc(OC)c1OC [Fallypride]
pKi ([15]; ref Stark et al., 2007): 8.68

O=C(NCCCCN1CCN(c2cccc(Cl)c2Cl)CC1)c1ccc2c(c1)Cc1ccccc1-2 [NGB 2904]
D3R selectivity (over D2R) [16]: > 50 fold
In Vitro D3 Selectivity [16]: 56
pKi ([15]; ref Heiderbreder et al., 2010): 6.95
pKi ([17]; ref Heiderbreder et al., 2010): 8.70
Water solubility [14]: low water solubility
Effect on 18F-fallypride binding in dorsal and ventral striatum ([12]; 4 mg/kg iv at 90 min, rat PET): no measureable reduction; also recorded: not evident
18F-Fallypride displacement in vivo (change), Dorsal Striatum ([12]; 4.0 mg/kg iv in HPbCD, rat PET): Not significant
18F-Fallypride displacement in vivo (change), Ventral Striatum ([12]; 4.0 mg/kg iv in HPbCD, rat PET): Not significant
Nondisplaced 18F-Fallypride ([12]; 4.0 mg/kg iv, rat PET): 100%
18F-fallypride displaced [13, 22]: 40 to 50%

CCCN1CCO[C@@H]2c3cc(O)ccc3CC[C@H]21 [PHNO]
In Vitro D3 Selectivity [16]: 53
pKi ([15]; ref Willeit et al., 2006): 8.07
pKi ([17]; ref Willeit et al., 2006): 9.80
